Among the data in patent publication US7282494B2, “Heteroaryl diazacycloalkanes, their preparation and use” (Neurosearch A/S, priority 1909, dated 2007) are melting point and IC50 values, retold here.

pIC50: −log10 of the molar value. Counter-ions that a name gives are not always drawn. Like-named read-outs stand apart in the source and are kept apart here.

Data set [1] deals with nAChR formed by the α7 subunit isoform (Rattus norvegicus, UniProt Q05941). The data set is described as follows: In vitro inhibition of 3H-α-bungarotoxine binding rat brain (Assay III).
Data set [2] has as its target T1, neuronal nicotinic receptors (3H-epibatidine binding sites; high affinity site α4β2 subtype) (Rattus norvegicus, UniProt P09483+P12390). The data set is described as follows: biochemical.
For data set [3], the target named is T1, neuronal nicotinic receptors (3H-epibatidine binding sites; high affinity site α4β2 subtype).
The mark [4] stands for this setting: 3H-α-bungarotoxine 2 nM, cerebral cortices from male Wistar rats, 2 h at 37° C., read-out: Assay III IC50.

T1 sequence (P09483 31-630): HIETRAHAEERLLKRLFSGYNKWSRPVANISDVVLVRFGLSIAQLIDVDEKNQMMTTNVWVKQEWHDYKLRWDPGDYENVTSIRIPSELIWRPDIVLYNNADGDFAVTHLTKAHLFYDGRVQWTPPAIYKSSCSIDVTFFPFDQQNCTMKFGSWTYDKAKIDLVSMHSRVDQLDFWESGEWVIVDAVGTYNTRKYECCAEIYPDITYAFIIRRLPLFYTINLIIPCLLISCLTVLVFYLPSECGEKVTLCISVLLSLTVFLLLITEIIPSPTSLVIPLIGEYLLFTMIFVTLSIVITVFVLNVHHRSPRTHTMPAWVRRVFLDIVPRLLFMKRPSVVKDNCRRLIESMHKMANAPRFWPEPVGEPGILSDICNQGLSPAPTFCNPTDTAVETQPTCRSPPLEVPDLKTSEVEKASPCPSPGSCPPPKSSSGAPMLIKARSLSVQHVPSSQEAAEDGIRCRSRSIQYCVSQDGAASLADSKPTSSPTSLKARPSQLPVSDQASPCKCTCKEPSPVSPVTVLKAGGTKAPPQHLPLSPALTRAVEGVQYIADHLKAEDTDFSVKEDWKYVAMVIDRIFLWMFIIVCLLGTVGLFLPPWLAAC
T1 sequence (P12390 25-500): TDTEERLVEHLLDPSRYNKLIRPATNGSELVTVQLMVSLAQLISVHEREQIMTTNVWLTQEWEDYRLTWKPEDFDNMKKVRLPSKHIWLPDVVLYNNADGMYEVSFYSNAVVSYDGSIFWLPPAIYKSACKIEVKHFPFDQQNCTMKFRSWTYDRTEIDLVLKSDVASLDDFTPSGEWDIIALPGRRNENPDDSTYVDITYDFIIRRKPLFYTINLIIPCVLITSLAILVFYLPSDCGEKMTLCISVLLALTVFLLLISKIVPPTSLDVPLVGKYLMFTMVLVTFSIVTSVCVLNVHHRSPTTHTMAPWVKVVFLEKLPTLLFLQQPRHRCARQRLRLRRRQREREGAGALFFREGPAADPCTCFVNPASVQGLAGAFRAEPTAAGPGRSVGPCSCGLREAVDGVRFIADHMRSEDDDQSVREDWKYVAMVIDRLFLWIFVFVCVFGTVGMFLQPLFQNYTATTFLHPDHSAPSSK
Chain of nAChR formed by the α7 subunit isoform (Q05941 23-502): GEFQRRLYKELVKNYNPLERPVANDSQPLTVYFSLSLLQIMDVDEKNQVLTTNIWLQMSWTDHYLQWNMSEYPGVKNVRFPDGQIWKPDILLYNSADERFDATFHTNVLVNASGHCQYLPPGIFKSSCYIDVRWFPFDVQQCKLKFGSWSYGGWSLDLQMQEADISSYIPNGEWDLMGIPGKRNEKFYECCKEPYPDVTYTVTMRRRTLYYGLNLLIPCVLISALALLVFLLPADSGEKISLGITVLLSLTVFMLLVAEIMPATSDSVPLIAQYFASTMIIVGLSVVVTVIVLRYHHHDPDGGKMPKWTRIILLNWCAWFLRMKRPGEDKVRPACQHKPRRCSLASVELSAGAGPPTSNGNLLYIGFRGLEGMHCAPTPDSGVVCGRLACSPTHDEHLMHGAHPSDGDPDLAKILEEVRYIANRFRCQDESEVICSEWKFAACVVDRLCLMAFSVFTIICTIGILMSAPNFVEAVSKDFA

For orientation: melting point means the temperature, or range, at which the solid turns liquid. `CCCCCOc1cncc(N2CCN(C)CC2)c1` (as salt: fumaric acid salt) came in with a melting point of 113.6 to 115.1 °C.

In turn, `C=COc1cc(N2CCCNCC2)cnc1Br` (as salt: fumaric acid salt) gave a melting point of 128.6 °C.

Compound `C=COc1cc(N2CCCNCC2)cnc1Cl` (as salt: fumaric acid salt) displayed a melting point of 183 to 185 °C.

For the compound `Ic1cncc(N2CCCNCC2)c1` (as salt: fumaric acid salt), the melting point was 178 to 180 °C.

Take `COc1cc(N2CCCNCC2)cnc1Br` (as salt: fumaric acid salt): the melting point lay in the range of 210 to 212 °C.

Regarding `CCOc1cncc(N2CCCN(c3cncc(OCC)c3)CC2)c1` (as salt: fumaric acid salt), the melting point fell in the range of 155 to 156 °C.

Consider `C=COc1cncc(N2CCCN(c3cncc(OC=C)c3)CC2)c1` (as salt: fumaric acid salt), for which the melting point lay within 157 to 158.5 °C.

`c1ncc(N2CCCNCC2)cc1N1CCC1` (as salt: fumaric acid salt) showed a melting point of 143.5 to 146.9 °C.

In the case of `Clc1cncc(N2CCCNCCC2)c1` (as salt: fumaric acid salt), the melting point is 186 to 187 °C.

Compound `Brc1cncc(N2CCCNCCC2)c1` (as salt: fumaric acid salt) came in with a melting point of 151 to 153 °C.

As for `Brc1cc(N2CCCNCC2)cnc1Br` (as salt: fumaric acid salt) [1-(5,6-Dibromo-3-pyridyl)-homopiperazine], the melting point was in the range of 192.1 to 193.2 °C.

For the compound `Clc1cc(N2CCCNCC2)cnc1Cl` (as salt: fumaric acid salt) [1-(5,6-Dichloro-3-pyridyl)-homopiperazine], the melting point was 172.2 to 173.4 °C.

For `Clc1ncc(N2CCCNCC2)cc1Br` (as salt: fumaric acid salt) [1-(5-Bromo-6-chloro-3-pyridyl)-homopiperazine], the melting point is 188.2 to 189.2 °C.

`C(#Cc1cncc(N2CCCNCC2)c1)c1ccccc1` (as salt: fumaric acid salt) [1-(5-Phenylacetylenyl-3-pyridyl)-homopiperazine]: the melting point lay within 155.2 to 157.8 °C.

Compound `Brc1ccc(N2CCCNCC2)nn1` (as salt: fumaric acid salt) [1-(6-Bromo-3-pyridazinyl)-homopiperazine] showed a melting point of 169 to 171 °C.

For `Clc1cc(N2CCCNCC2)cnc1Br` (as salt: fumaric acid salt) [1-(6-Bromo-5-chloro-3-pyridyl)-homopiperazine], the melting point was 213 to 216 °C.

The compound `C=CC(C)Oc1cncc(N2CCCNCC2)c1` (stereo not shown) (as salt: fumaric acid salt) [1-[5-(1-Methyl-1-prop-2-en-oxy)-3-pyridyl]-homopiperazine] gave a melting point of 129.5 to 133.6 °C.

`CCC(CC)COc1cncc(N2CCCNCC2)c1` (as salt: fumaric acid salt) [1-[5-(2-Ethyl-1-butoxy)-3-pyridyl]-homopiperazine]: the melting point lay within 113.7 to 115.9 °C.

With `c1ncc(N2CCCNCC2)cc1OCC1CCC1` (as salt: fumaric acid salt) [1-[5-(Cyclobutylmethoxy)-3-pyridyl]-homopiperazine], the melting point fell in the range of 158.9 to 159.9 °C.

Take `CCCC=CCOc1cncc(N2CCCNCC2)c1` (as salt: fumaric acid salt) [1-[5-(Hex-2-en-ox)-3-pyridyl]-homopiperazine]: the melting point was 126.8 to 130.2 °C.

`CCCCN(C)c1cncc(N2CCCNCC2)c1` (as salt: fumaric acid salt) [1-[5-(N-Butyl-N-methylamino)-3-pyridyl]homopiperazine] gave a melting point of 140.5 to 141.8 °C.

The compound `c1ncc(N2CCCNCC2)cc1N1CCCC1` (as salt: fumaric acid salt) [1-[5-(N-pyrrolidinyl)-3-pyridyl]-homopiperazine] showed a melting point of 141.5 to 143 °C.

For orientation: pIC50 means the IC50 on a negative log10 scale, so that one unit is a factor of ten. As for `Brc1cc(N2CCCNCC2)cnc1Br` [1-(5,6-Dibromo-3-pyridyl)-homopiperazine], the pIC50 was 5.52 in data set [1] (setting [4]) and 9.00 in data set [2].

For the compound `Clc1cc(N2CCCNCC2)cnc1Cl` [1-(5,6-Dichloro-3-pyridyl)-homopiperazine], the pIC50 in data set [1] (setting [4]) is greater than 5.52; in data set [2], 8.70.

On to `Clc1ncc(N2CCCNCC2)cc1Br` [1-(5-Bromo-6-chloro-3-pyridyl)-homopiperazine], for which the pIC50 in data set [1] (setting [4]) was greater than 5.52; in data set [2], 9.00.

Take `C=CCN1CCCN(c2cncc(OCC)c2)CC1` [1-(5-Ethoxy-3-pyridyl)-4-(prop-2-en-1-yl-)-homopiperazine]: the pIC50 in data set [1] was less than 4.52.

Regarding `CCOc1cncc(N2CCCN(CC)CC2)c1` [1-(5-Ethoxy-3-pyridyl)-4-ethyl-homopiperazine], the negative-log IC50 (pIC50) in data set [1] is less than 4.52.

`C(#Cc1cncc(N2CCCNCC2)c1)c1ccccc1` [1-(5-Phenylacetylenyl-3-pyridyl)-homopiperazine]: the pIC50 in data set [1] (setting [4]) was 4.96; in data set [2], 8.30.

`Brc1ccc(N2CCCNCC2)nn1` [1-(6-Bromo-3-pyridazinyl)-homopiperazine]: the pIC50 is 5.82 in data set [1] (setting [4]) and 7.15 in data set [2].

Regarding `Clc1cc(N2CCCNCC2)cnc1Br` [1-(6-Bromo-5-chloro-3-pyridyl)-homopiperazine], the pIC50 was greater than 5.52 in data set [1] (setting [4]) and 8.70 in data set [2].

Regarding `C=CC(C)Oc1cncc(N2CCCNCC2)c1` (stereo not shown) [1-[5-(1-Methyl-1-prop-2-en-oxy)-3-pyridyl]-homopiperazine], the pIC50 in data set [1] (setting [4]) was 4.96; in data set [2], 7.28.

In the case of `CCC(CC)COc1cncc(N2CCCNCC2)c1` [1-[5-(2-Ethyl-1-butoxy)-3-pyridyl]-homopiperazine], the pIC50 in data set [1] (setting [4]) was less than 4.52; in data set [2], 7.89.

`CC(C)=COc1cncc(N2CCCNCC2)c1` [1-[5-(2-Methyl-1-prop-1-en-oxy)-3-pridyl]-homopiperazine]: the pIC50 is 4.07 in data set [1] (setting [4]) and 7.70 in data set [3].

For the compound `CCCCOc1cncc(N2CCCNCCC2)c1` [1-[5-(Butoxy)-3-pyridyl]-1,5-diazacyclooctane], the negative logarithm of the IC50 (pIC50) in data set [2] was 8.52.

On to `c1ncc(N2CCCNCC2)cc1OCC1CCC1` [1-[5-(Cyclobutylmethoxy)-3-pyridyl]-homopiperazine], for which the pIC50 in data set [1] (setting [4]) is less than 4.52; in data set [2] it was 8.40.

For `CCCC=CCOc1cncc(N2CCCNCC2)c1` [1-[5-(Hex-2-en-ox)-3-pyridyl]-homopiperazine], the pIC50 in data set [1] (setting [4]) is 4.33; in data set [2], 8.10.

With `c1ncc(N2CCCNCC2)cc1N1CCCC1` [1-[5-(N-pyrrolidinyl)-3-pyridyl]-homopiperazine], the negative logarithm of the IC50 (pIC50) is 5.30 in data set [1] (setting [4]) and 7.40 in data set [2].

Turning to `CC1OC1Oc1cncc(N2CCCNCC2)c1` (stereo not shown) [1-[5-(Propyl-1,2-epoxy-1-oxy)-3-pyridyl]-homopiperazine], the melting point was in the range of 135.2 to 139 °C. In data set [1] (setting [4]), the pIC50 is 4.24. In data set [2], the pIC50 was 7.40.
